Among the test systems are DLD-1 colon; DMS 273 small cell lung; KM20L2 colon; LXFL 529 NSCLC; M19-MEL melanoma; SNB-78 CNS; XF 498 CNS; MDA-N; RXF-631 renal; P388 leukemia; P388/ADR leukemia; SN12K1 renal.
Holding throughout (experiment): NCI tumour cell line growth inhibition, 48 h

Structures are written as SMILES.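 How tested: cells in 96-well plates exposed to compound for 48 hours at five concentrations. GI50: concentration for 50% inhibition of growth. At the TGI there is no net growth.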

From PubChem BioAssay (NCI) come the findings set out here.

Turning to `CCC(=O)N1C(=S)SC[C@H]1C(=O)OC`, the TGI with DLD-1 colon, with DMS 273 small cell lung, in the assay on KM20L2 colon, in the assay on LXFL 529 NSCLC, with M19-MEL melanoma and in the assay with SNB-78 CNS was above 100 µM in each case. The TGI with XF 498 CNS was above 100 µM.

On to `CCOc1ccc2c(c1)[n+]([O-])c(C(N)=O)c(N)[n+]2[O-]`, for which the TGI in the assay on DLD-1 colon, with DMS 273 small cell lung, in the assay with KM20L2 colon, in the assay with LXFL 529 NSCLC, with M19-MEL melanoma and in the assay on SNB-78 CNS was above 100 µM throughout. The TGI in the assay with XF 498 CNS is above 100 µM.

Take `O=c1c(-c2cccc3ccccc23)c(-c2cccc3ccccc23)c1=O`: the TGI is above 100 µM with DLD-1 colon; 13.2 µM in the assay on DMS 273 small cell lung; 1.59 µM in the assay on KM20L2 colon; above 85 µM with LXFL 529 NSCLC; above 100 µM in the assay with M19-MEL melanoma; above 100 µM in the assay on SNB-78 CNS. In addition, in the assay with XF 498 CNS, the TGI was determined as 99 µM.

In the assay on MDA-N, `C=C1C(=O)O[C@@H]2C[C@@]3(C)CCC[C@H](C)C3=C[C@H]12` (tested in a mixture with another compound) had a TGI of 7.08 µM.

As for `O=C1/C(=C/c2cc(O)c(O)c(O)c2)Oc2cc(O)cc(OC3OC(CO)C(O)C(O)C3O)c21` (stereo not drawn), the TGI with DLD-1 colon is 42.4 µM; with DMS 273 small cell lung, 3.67 µM; in the assay with KM20L2 colon, 74 µM; with LXFL 529 NSCLC, 28 µM; in the assay on M19-MEL melanoma it was 37.1 µM; in the assay with SNB-78 CNS it was 68.5 µM.

Take `O=c1cc(-c2cccc(Cl)c2)[nH]c2cc3c(cc12)OCO3`: the TGI with DLD-1 colon was found to be 8.57 µM; with DMS 273 small cell lung, 75 µM; in the assay on LXFL 529 NSCLC it was 2.73 µM; in the assay with M19-MEL melanoma, 75 µM; in the assay with MDA-N it was 0.158 µM; in the assay on XF 498 CNS it was 13.8 µM.

With `CCN(CC)C(=O)c1cccc2c(OC)ccc(OC)c12`, the TGI in the assay with DLD-1 colon, in the assay on DMS 273 small cell lung, in the assay with KM20L2 colon, in the assay on LXFL 529 NSCLC and in the assay on M19-MEL melanoma was above 100 µM throughout.

`O=S(=O)(c1ccccc1)N1CCC1c1ccccc1` (stereo not drawn): the TGI with DMS 273 small cell lung, with KM20L2 colon, in the assay on M19-MEL melanoma, in the assay on RXF-631 renal, in the assay with SNB-78 CNS and with XF 498 CNS was above 100 µM in each case.

Take `COc1ccc2c(c1[N+](=O)[O-])CC[C@@H]1[C@@H]2CC[C@]2(C)C(=O)CC[C@@H]12`: the TGI in the assay with DLD-1 colon is above 25 µM; in the assay on DMS 273 small cell lung it was above 25 µM; with KM20L2 colon, above 25 µM; in the assay on M19-MEL melanoma, above 25 µM; in the assay on MDA-N it was above 1000 µM; with P388 leukemia, above 25 µM. Further, the TGI with P388/ADR leukemia is 25 µM; in the assay with SN12K1 renal, above 25 µM; with SNB-78 CNS it was 25 µM; in the assay with XF 498 CNS it was 25 µM. Also, the GI50 with MDA-N is above 25 µM.

Compound `C[C@]12CC[C@H]3[C@@H](CCC4=CC(=O)CC[C@@]43C)[C@]1(O)CC[C@]2(O)C(=O)CO` returned a TGI in the assay with MDA-N above 100 µM.

On to `CN(c1ccccc1)c1nc(=[N+](C)C)ss1`, for which the TGI with DLD-1 colon, in the assay with DMS 273 small cell lung, with KM20L2 colon, in the assay with LXFL 529 NSCLC, in the assay on M19-MEL melanoma and in the assay on SNB-78 CNS was above 100 µM throughout. This compound also showed a TGI in the assay with XF 498 CNS above 100 µM.

In the case of `CC(C)CC(NC(=O)C(O)C(N)Cc1ccccc1)C(=O)O` (stereo not drawn), in the assay on MDA-N, the TGI was above 100 µM.

For `CN(C)C(=C1C(Br)=C(Br)C(Br)=C1Br)N(C)C`, the TGI in the assay on DLD-1 colon, in the assay on DMS 273 small cell lung, with KM20L2 colon, in the assay on LXFL 529 NSCLC and in the assay on M19-MEL melanoma was above 100 µM in each case.

On to `CN(C)CCN1C(=O)c2cccc3cc(N)cc(c23)C1=O`, for which the TGI with DLD-1 colon was 27.7 µM; in the assay on DMS 273 small cell lung, 8.22 µM; in the assay with KM20L2 colon it was 23.5 µM; in the assay on M19-MEL melanoma, 12.5 µM; with MDA-N it was 13.4 µM; with P388 leukemia, 12.1 µM. Moreover, the TGI in the assay on P388/ADR leukemia turned out to be 11.8 µM; in the assay with SN12K1 renal it was 7.43 µM; with XF 498 CNS, 3.64 µM.

Take `COc1cc(OC)c(OC)cc1/C=C/c1ccccn1`: the TGI in the assay on MDA-N is above 10 µM.

With `O=S1(=O)[C@H](c2ccccc2)c2c(-c3ccccc3)sc(-c3ccccc3)c2[C@@H]1c1ccccc1`, the TGI in the assay on DLD-1 colon, in the assay on DMS 273 small cell lung, in the assay with KM20L2 colon, in the assay on LXFL 529 NSCLC and with M19-MEL melanoma was above 100 µM each time.

For the compound `O=C(O)c1c2c(c(O)c3c1CN(C1CCCCC1)CO3)OCN(C1CCCCC1)C2`, the TGI in the assay on MDA-N was above 100 µM.

On to `CC[O-].CC[O-].[O-]c1ccccc1C=NC12CC3CC(CC(C3)C1)C2.[O-]c1ccccc1C=NC12CC3CC(CC(C3)C1)C2.[Ti+4]`, for which the GI50 was 11.1 µM with DLD-1 colon; above 100 µM with DMS 273 small cell lung; 45.6 µM in the assay on KM20L2 colon; 23.5 µM in the assay on LXFL 529 NSCLC; above 100 µM in the assay with M19-MEL melanoma; 29.4 µM in the assay with RXF-631 renal. Besides, in the assay on SNB-78 CNS, the GI50 is above 100 µM. The TGI in the assay with DLD-1 colon, in the assay on DMS 273 small cell lung, in the assay with KM20L2 colon, in the assay on LXFL 529 NSCLC, in the assay on M19-MEL melanoma and in the assay with RXF-631 renal was above 100 µM throughout. This compound displayed a TGI in the assay on SNB-78 CNS above 100 µM.

As for `OC(c1ccccc1)c1c(-c2ccccc2)[nH]c(-c2ccccc2)c1C(O)c1ccccc1` (stereo not drawn), the TGI with MDA-N turned out to be 7.2 µM.

As for `O=C(Nc1ccc(Nc2ccc3c(c2)C(=O)c2ccccc2C3=O)c2c1C(=O)c1ccccc1C2=O)c1ccccc1`, the TGI in the assay with MDA-N is above 100 µM.

Consider `CC1COS(=O)N1c1ccccc1` (stereo not drawn), for which the TGI in the assay on DLD-1 colon, in the assay on DMS 273 small cell lung, in the assay on KM20L2 colon, with LXFL 529 NSCLC, in the assay on M19-MEL melanoma and with XF 498 CNS was above 100 µM each time.
